From ChEMBL document CHEMBL1156829 (Proc Natl Acad Sci U S A, 2008)
Where “and” joins values, the source holds several entries; their conditions need not be identical. Equal entries are not always repeated. Structures can show the parent of a compound that is named as a salt.

Legend:
Huh-7 = experiment: (§1) NOVARTIS: Cytotoxicity against human hepatocellular carcinoma cell line (Huh7); format: toxicity, cell-based; conditions: huh-7, read-out: CC50
Plasmodium falciparum [1] = experiment: NOVARTIS: Inhibition of Plasmodium falciparum 3D7 (drug-susceptible) proliferation in erythrocyte-based infection assay; format: functional, organism-based
Plasmodium falciparum [2] = experiment: NOVARTIS: Inhibition of Plasmodium falciparum W2 (drug-resistant) proliferation in erythrocyte-based infection assay; format: functional, organism-based; conditions: read-out: EC50
[3] = as §1; format: toxicity, cell-based, Huh-7; conditions: Huh7 cells (hepatocellular carcinoma cell line)

Compound | CC50 (Huh-7) | EC50 (Plasmodium falciparum [1]) | EC50 (Plasmodium falciparum [2]; Plasmodium falciparum, W2) | EC50 (Plasmodium falciparum [2]) | CC50 [3] | EC50 (Plasmodium falciparum [1]; Plasmodium falciparum, 3D7)
Cn1cc(/C=C/c2cc[n+](C)cc2)c2ccccc21 | 7.7 µM | 0.215 µM |  |  |  | 
CC[n+]1c(/C=C2\Sc3ccccc3N2CCO)ccc2cc(C)ccc21 | > 10 µM and 56.3 µM |  | > 0.248 µM | 0.142 µM |  | 
CC[n+]1c(/C=C2\Sc3ccc(C)cc3N2CCO)ccc2ccccc21 | > 10 µM and 29.4 µM |  |  |  |  | 
Cc1ccc(N=C2S/C(=C\c3c(Cl)cccc3Cl)C(=O)N2c2ccc(C)c(C)c2)cc1C | > 100 µM |  |  | 1.34 µM and 4.81 µM |  | 
Cc1ccc2c(c1)N(C)/C(=C/c1cccc[n+]1C)S2 | > 10 µM and 22.7 µM | 0.825 µM |  |  |  | 
Cc1cc(C)cc(-n2c(C)cc(/C=C3\SC(=Nc4ccc(Cl)cc4)NC3=O)c2C)c1 | > 100 µM |  |  | 0.0811 µM and 0.704 µM |  | 
Cc1cc(/C=C2\SC(=Nc3ccccc3)NC2=O)c(C)n1-c1ccccc1 | > 99.7 µM |  |  | 0.0128 µM and 0.0862 µM |  | 
C/C(C=C1Sc2ccc3ccoc3c2N1CCO)=C\c1sc2ccc3occc3c2[n+]1CCO | > 100 µM | 6.89 µM and 1.54 µM |  |  |  | 
CC[n+]1c(/C=C2\Sc3cc(NC(C)=O)ccc3N2C)ccc2ccccc21 | > 100 µM | 0.373 µM and 0.0722 µM |  |  |  | 
CC[n+]1c(/C=C2\Sc3ccc(OC)cc3N2C)ccc2cc(C)ccc21 | > 10 µM and 21.8 µM |  |  | 0.331 µM and 0.052 µM |  | 
CCOc1ccc(/C=C2/SC(=Nc3ccccc3)NC2=O)cc1OC | > 100 µM | 0.662 µM and 1.53 µM |  |  |  | 
CC(C)[C@@]1(NC(=O)[C@@H]2C[C@@H]3c4cccc5[nH]cc(c45)C[C@H]3N(C)C2)O[C@@]2(O)[C@@H]3CCCN3C(=O)[C@H](Cc3ccccc3)N2C1=O [DIHYDROERGOCRISTINE] |  |  | 0.449 µM |  | 33.1 µM | 1.25 µM
CCC1CN2CCC1CC2[C@@H](O)c1ccnc2ccc(OC)cc12 (stereo partly specified) [DIHYDROQUINIDINE] |  |  | 0.0257 µM |  | > 96 µM | 0.0273 µM
CS[C@H]1SC[C@H]2C(=O)N(C)[C@@H](C(C)C)C(=O)OC[C@@H](NC(=O)c3cnc4ccccc4n3)C(=O)N[C@@H](C)C(=O)N(C)[C@@H]1C(=O)N(C)[C@@H](C(C)C)C(=O)OC[C@@H](NC(=O)c1cnc3ccccc3n1)C(=O)N[C@@H](C)C(=O)N2C [ECHINOMYCIN] |  |  | 0.524 µM |  | > 10 µM | 0.0737 µM
CCC(Cc1cnc2nc(N)nc(N)c2n1)c1ccc(C(=O)N[C@@H](CCC(=O)O)C(=O)O)cc1 (stereo partly specified) [EDATREXATE] |  |  | 0.108 µM |  | 0.0304 µM | 0.0148 µM
CC[C@H]1CN2CCc3cc(OC)c(OC)cc3[C@@H]2C[C@@H]1C[C@H]1NCCc2cc(OC)c(OC)cc21 [EMETINE] |  |  | 0.0229 µM |  | 0.116 µM | 0.0101 µM
O=C1c2ccccc2-[n+]2ccc3c([nH]c4ccccc43)c21 [FASCAPLYSIN CHLORIDE] |  |  | 0.0464 µM |  | 0.589 µM | 0.0749 µM
CN(C)c1ccc(C(=C2C=CC(=[N+](C)C)C=C2)c2ccc(N(C)C)cc2)cc1 [GENTIAN VIOLET] |  |  | 0.17 µM |  | 1.43 µM | 0.0221 µM
CCn1ccnc1CC1COc2ccccc2O1 (stereo unspecified) [IMILOXAN HYDROCHLORIDE] |  |  | 0.443 µM |  | > 10 µM | > 1.04 µM
COc1cc2c(cc1O)CC[n+]1cc3c(OC)c(OC)ccc3cc1-2 [JATRORRHIZINE CHLORIDE] |  |  | 1.66 µM |  | 8.94 µM | 0.939 µM
CCCCN(CCCC)CC(O)c1cc(Cl)cc2c1-c1ccc(Cl)cc1/C2=C/c1ccc(Cl)cc1 (stereo unspecified) [LUMEFANTRINE] |  |  | 0.518 µM |  | > 10 µM | 0.777 µM
O[C@H]1[C@H]2c3cc4c(cc3CN3CCC(=C[C@@H]1O)[C@H]23)OCO4 [LYCORINE] |  |  | 0.156 µM |  | 66.1 µM | 0.607 µM
OC(c1cc(C(F)(F)F)nc2c(C(F)(F)F)cccc12)C1CCCCN1 (stereo unspecified) [MEFLOQUINE] |  |  | 0.00814 µM |  | 18.9 µM | 0.0248 µM
O=C(NCCN1CCOCC1)c1ccc(Cl)cc1 [MOCLOBEMIDE] |  |  | > 1.25 µM |  | > 10 µM | > 0.74 µM
Cc1ccc2ccc3ccc(C)nc3c2n1 [NEOCUPROINE] |  |  | 0.0243 µM |  | > 100 µM | 0.0971 µM

Compound | CC50 (Huh-7) | EC50 (Plasmodium falciparum [1]) | EC50 (Plasmodium falciparum [2]; Plasmodium falciparum, W2) | EC50 (Plasmodium falciparum [2]) | CC50 [3] | EC50 (Plasmodium falciparum [1]; Plasmodium falciparum, 3D7)
CCCCCCCCCCCC(OC(=O)C(CCCCN(O)C(C)=O)NC(=O)c1coc(-c2ccccc2O)n1)C(C)C(=O)NC1CCCCN(O)C1=O (stereo unspecified) [NOCARDIMICIN B] |  |  | 0.00224 µM |  | > 10 µM | > 0.864 µM
C[C@@H]1C[C@H]2CC[C@H](O2)[C@H](C)C(=O)O[C@@H](C)C[C@@H]2CC[C@@H](O2)[C@@H](C)C(=O)O[C@H](C)C[C@H]2CC[C@@H](O2)[C@H](C)C(=O)O[C@@H](C)C[C@@H]2CC[C@@H](O2)[C@@H](C)C(=O)O1 [NONACTIN] |  |  | 0.359 µM |  | 3.53 µM | 0.433 µM
NC(=O)CN1CC(O)CC1=O (stereo unspecified) [OXIRACETAM] |  |  | 6.22 µM |  | 57.5 µM | 5.96 µM
COc1cc2c(cc1OC)-c1cc3ccc(OC)c(OC)c3c[n+]1CC2 [PALMATINE CHLORIDE] |  |  | 0.766 µM |  | > 100 µM | 0.697 µM
C/C(=C\c1csc(C)n1)[C@@H]1C[C@@H]2O[C@]2(C)CCC[C@H](C)[C@H](O)[C@@H](C)C(=O)C(C)(C)[C@@H](O)CC(=O)O1 [PATUPILONE] |  |  | > 1.25 µM |  | > 6.25 µM | 0.00409 µM
N=C(N)c1ccc(OCCCCCOc2ccc(C(=N)N)cc2)cc1 [PENTAMIDINE] |  |  | 0.0687 µM |  | > 6.25 µM | 0.0662 µM
O=C1C(=O)c2ncccc2-c2cccnc21 [PHANQUONE] |  |  | 0.369 µM |  | 5.91 µM | 0.644 µM
O=C(Nc1ccc(Cl)cc1)Oc1ccccc1 [PHENYL 4-CHLOROPHENYLCARBAMATE] |  |  | 2.01 µM |  | 51.9 µM | > 12.5 µM
COC(=O)[C@]1(C)CC[C@]2(C)CC[C@]3(C)C4=CC=C5C(=CC(=O)C(O)=C5C)[C@]4(C)CC[C@@]3(C)[C@@H]2C1 [PRISTIMERIN] |  |  | > 0.82 µM |  | > 6.25 µM | > 1.25 µM
CC(C)NCC(O)c1ccc2ccccc2c1 (stereo unspecified) [PRONETALOL] |  |  | 0.366 µM |  | 13.1 µM | 0.455 µM
CCCNCC(O)COc1ccccc1C(=O)CCc1ccccc1 (stereo unspecified) [PROPAFENONE] |  |  | 0.117 µM |  | 28.9 µM | 0.252 µM
COc1ccc(C[C@H](N)C(=O)N[C@H]2[C@@H](O)[C@H](n3cnc4c(N(C)C)ncnc43)O[C@@H]2CO)cc1 [PUROMYCIN] |  |  | 0.328 µM |  | 6.63 µM | 0.611 µM
CCc1nc(N)nc(N)c1-c1ccc(Cl)cc1 [PYRIMETHAMINE] |  |  | 0.0146 µM |  | 45.6 µM | 0.0319 µM
CCN(CC)CCCC(C)Nc1c2ccc(Cl)cc2nc2ccc(OC)cc12 (stereo unspecified) [QUINACRINE] |  |  | 0.0142 µM |  | 19.6 µM | 0.00813 µM
C=C[C@H]1CN2CC[C@H]1C[C@@H]2[C@@H](O)c1ccnc2ccc(OC)cc12 [QUINIDINE] |  |  | 0.0352 µM |  | 50.8 µM | 0.00959 µM
C=C[C@H]1CN2CC[C@H]1C[C@H]2[C@H](O)c1ccnc2ccc(OC)cc12 [QUININE] |  |  | 1.32 µM |  | > 6.25 µM | 0.993 µM
CN1CCc2cc3c(c4c2C1Cc1ccccc1-4)OCO3 (stereo unspecified) [ROEMERINE] |  |  | 0.112 µM |  | 22.3 µM | 0.0931 µM
O=C(O)[C@@H]1C[C@H](CP(=O)(O)O)CCN1 [SELFOTEL] |  |  | > 1.21 µM |  | > 5.06 µM | 1.32 µM
CCCCCCCCNC(C)C(O)c1ccc(SC(C)C)cc1 (stereo unspecified) [SULOCTIDIL] |  |  | 0.603 µM |  | 10.5 µM | 0.0824 µM
c1ccc(-c2cccc(-c3ccccn3)n2)nc1 [TERPYRIDINE] |  |  | 0.0392 µM |  | 12.6 µM | 0.154 µM
CC(/C=C/C(=O)NO)=C\[C@@H](C)C(=O)c1ccc(N(C)C)cc1 [TRICHOSTATIN] |  |  | 0.171 µM |  | 1.59 µM | 0.2 µM
O=C1c2ccccc2-n2c1nc1ccccc1c2=O [TRYPTANTHRIN] |  |  | 0.276 µM |  | > 10 µM | 0.212 µM
COc1cc2c3c(c4cc(OC)c(OC)cc4c2cc1OC)CN1CCC[C@@H]1C3 [TYLOPHORINE] |  |  | 0.963 µM |  | > 7.91 µM | > 0.509 µM
COc1cc2c(Nc3ccc(Br)cc3F)ncnc2cc1OCC1CCN(C)CC1 [VANDETANIB] |  |  | 1.6 µM |  | 37.2 µM | 1.92 µM
